Experimental data reported in patent US12448363B2, “Kinase inhibitors” (Vidya Therapeutics, Inc., priority 2020, dated 2025).

Assays:
BTK [1] = target: T1, BTK (Homo sapiens, UniProt Q06187); assay: Assay to determine activity against BTK (EZ reader, FLPeptide); format: biochemical; set-up: purchased Carna; conditions: ATP (1 mM), BTK (2 nM), room temperature for 90 minutes
In short: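 Human BTK (2 nM) phosphorylated FLPeptide (1.5 uM) with 1 mM ATP in 50 mM HEPES pH7.5, 10 mM MgCl2, 2 mM DTT, 1 mM EGTA, 0.01% Brij-35, 0.05% BSA; 11-point 3-fold compound dilutions. After 90 min at room temperature, EDTA stop; conversion ratio read on EZ reader, IC50 from curve fit with free top and bottom.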

BTK [2] = target: T1, BTK; assay: Assay to determine BTK inactivation rate in human whole blood (ELISA of unoccupied BTK); format: cell-based; set-up: Human whole blood is obtained from StemExpress; tissue StemExpress; host or cells: human whole blood; conditions: 37° C., 5, 15, 30, 60 minutes; for kinact/KI: read-out: BTK hWB Kinact/Ki
Procedure: Human Whole Blood Compound Treatment and Lysis
Human whole blood is obtained from StemExpress and kept at ambient temperature until the time of the experiment. […] This is prepared fresh each experimental day. […] Compounds are reconstituted to stocks of 10 mM and are diluted in two-fold serial dilutions to generate an 8-point curve in DMSO, with the last point being DMSO only, creating a 100× dilution series. A working 10× dilution series is created using 1.0 μL of the prepared DMSO titration, 100×, into […] 1×PBS in order to keep the DMSO constant. The human whole blood is added in the volume of 225 μL per well in a new 96w v-bottom plate, where one column of eight wells is sufficient for testing one compound. For compound treatment, 25 μL of 10× dilution series in PBS is added to the 225 μL whole blood, followed by briefly pipetting up and down twice. The plates are covered with lids and incubated at 37° C. for 5, 15, 30, 60 minutes. At each timepoint, 30 μL of treated blood is pulled from each column and added to preloaded collection plates that contain 30 μL of supplemented lysis buffer and mixed briefly. The collected and lysed samples shake on rotator for 60 minutes at room temperature. These samples are used fresh for detection via ELISA, and remaining sample is frozen at −80° C. if a repeat is necessary.
ELISA: Determining Amount of Unoccupied BTK
All streptavidin pre-coated plates (R&D Systems, #CP004) are brought to room temperature while samples are lysing. Assay Buffer 1, 1×PBS+0.05% Tween 20+1% BSA is prepared and stored at 4° C. when not in use. Using this Assay Buffer, assay buffer+1× protease/phosphatase inhibitor cocktail (PICs) is prepared in the amount needed for all samples. Assay Buffer+PICs in the volume of 90 μL/well is added to the ELISA plate. Lysed blood sample (10 μL) is added to the ELISA plate. BTK recombinant protein dilutions are prepared in assay buffer+PICS for use as a μM). The standard is loaded into the ELISA plate at 100 μL/well, in duplicate. These samples and standards remain in the plate, sealed, overnight at 4° C. The following day, the plate is washed four times with 1× Wash Buffer (1×PBS+0.05% Tween 20) using a plate washer. The plate is inverted to expel all fluid each time and blotted on clean paper towels to remove remaining liquid. Assay Buffer 2 is prepared (1×PBS+0.05% Tween 20+0.05% BSA) and kept at 4° C. when not in use. […] Diluted a-BTK antibody is added at 100 μl/well. The plate is covered with adhesive film and incubated for 90 minutes at room temperature. The plate is washed four times with 1× Wash Buffer (1×PBS+0.05% Tween 20) using a plate washer. The plate is inverted to expel all fluid each time and blotted on clean paper towels to remove remaining liquid. […] The diluted antibody is added at 100 μl/well. The plate is covered with adhesive film and incubated for one hour at room temperature. The plate is washed four times with 1× Wash Buffer using a plate washer. The plate is inverted to expel all fluid each time and blotted on clean paper towels to remove remaining liquid. […] The plate is incubated at room temperature in the dark for −5-10 minutes. The reaction is stopped by adding 50 μl/well 2N sulfuric acid (H2SO4) (R&D Systems, #DY994). The plate is read in a plate reader at the wavelengths […] and 570 nm (correction wavelength). Using Graphpad Prism, an XY table+graph is created, listing 0-60 minutes as X axis and concentration as Y axis. A One Phase Decay model fit is applied to the data. Checking Results table, the K values are obtained and new XY table+graph are created. Concentration is assigned to the X axis and K values from first analysis are entered. The Michaelis-Menten equation is applied to the data.

T1 sequence (Q06187 whole entry): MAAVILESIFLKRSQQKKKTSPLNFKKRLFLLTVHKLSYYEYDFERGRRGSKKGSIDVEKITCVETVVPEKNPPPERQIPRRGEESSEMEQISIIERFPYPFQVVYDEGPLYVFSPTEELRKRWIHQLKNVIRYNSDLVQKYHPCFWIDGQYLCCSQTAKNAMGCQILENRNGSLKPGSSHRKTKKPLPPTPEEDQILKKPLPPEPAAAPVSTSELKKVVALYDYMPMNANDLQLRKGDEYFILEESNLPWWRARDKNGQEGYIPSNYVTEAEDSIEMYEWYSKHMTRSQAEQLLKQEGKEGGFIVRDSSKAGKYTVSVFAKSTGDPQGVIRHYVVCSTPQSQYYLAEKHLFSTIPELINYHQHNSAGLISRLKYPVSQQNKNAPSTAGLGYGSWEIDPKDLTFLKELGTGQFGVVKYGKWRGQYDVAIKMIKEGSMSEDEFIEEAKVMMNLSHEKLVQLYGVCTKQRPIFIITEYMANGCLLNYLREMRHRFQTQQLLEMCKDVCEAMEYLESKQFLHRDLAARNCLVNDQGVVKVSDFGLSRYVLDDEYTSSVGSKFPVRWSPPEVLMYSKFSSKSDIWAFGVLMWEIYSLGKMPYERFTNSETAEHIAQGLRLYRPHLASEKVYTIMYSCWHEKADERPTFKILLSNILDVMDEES

SMILES: C=CC(=O)N1CCC[C@@H](c2c(F)cc(C(N)=O)c3[nH]c(C)c(Cl)c23)C1 [Compound 2a, (S)-4-(1-acryloylpiperidin-3-yl)-3-chloro-5-fluoro-2-methyl-1H-indole-7-carboxamide]
- IC50 (BTK [1]): < 10 nM
- kinact/KI (BTK [2]): > 16700 M⁻¹ s⁻¹

SMILES: CC#CC(=O)N[C@H]1C[C@@H](F)CN(c2c(F)cc(C(N)=O)c3[nH]c(C)c(C)c23)C1 [Compound 33, 4-((3S,5R)-3-(but-2-ynamido)-5-fluoropiperidin-1-yl)-5-fluoro-2,3-dimethyl-1H-indole-7-carboxamide]
- IC50 (BTK [1]): < 10 nM
- kinact/KI (BTK [2]): > 16700 M⁻¹ s⁻¹

SMILES: C=CC(=O)N1CCc2c(cccc2-c2c(F)cc(C(N)=O)c3[nH]c(C)c(Cl)c23)C1 (single isomer, unassigned) [Compound 20b]
- IC50 (BTK [1]): < 10 nM
- kinact/KI (BTK [2]): 1670 to 16700 M⁻¹ s⁻¹

SMILES: CC#CC(=O)N[C@H]1C[C@H](F)CN(c2c(F)cc(C(N)=O)c3[nH]c(C)c(C)c23)C1 [Compound 35, 4-((3S,5S)-3-(but-2-ynamido)-5-fluoropiperidin-1-yl)-5-fluoro-2,3-dimethyl-1H-indole-7-carboxamide]
- IC50 (BTK [1]): < 10 nM
- kinact/KI (BTK [2]): > 16700 M⁻¹ s⁻¹

SMILES: C=CC(=O)N1CCC[C@@H](c2c(F)c(F)c(C(N)=O)c3[nH]c(C)c(F)c23)C1 [Compound 6b, (S)-4-(1-acryloylpiperidin-3-yl)-3,5,6-trifluoro-2-methyl-1H-indole-7-carboxamide]
- IC50 (BTK [1]): < 10 nM
- kinact/KI (BTK [2]): > 16700 M⁻¹ s⁻¹

SMILES: C=CC(=O)N1CCc2c(-c3c(F)cc(C(N)=O)c4[nH]c(C)c(Cl)c34)cccc2C1C (racemic) [Compound 22a, 4-(2-acryloyl-1-methyl-1,2,3,4-tetrahydroisoquinolin-5-yl)-3-chloro-5-fluoro-2-methyl-1H-indole-7-carboxamide]
- IC50 (BTK [1]): < 10 nM
- kinact/KI (BTK [2]): 1670 to 16700 M⁻¹ s⁻¹

SMILES: C=CC(=O)N1CCC2CCN(c3c(F)cc(C(N)=O)c4[nH]c(C)c(C)c34)CC21 (single isomer, unassigned) [Compound 32b, 4-(1-acryloyloctahydro-6H-pyrrolo[2,3-c]pyridin-6-yl)-5-fluoro-2,3-dimethyl-1H-indole-7-carboxamide]
- IC50 (BTK [1]): 10 to 100 nM
- BTK hWB Kinact/Ki (BTK [2]): C (a Kinact/Ki<1×10^−4 nM^−1 min^−1)

SMILES: CC#CC(=O)N1CCCC2CN(c3c(F)cc(C(N)=O)c4[nH]c(C)c(Cl)c34)CC21 (stereo not shown) [Compound 40, 4-(1-(but-2-ynoyl)octahydro-6H-pyrrolo[3,4-b]pyridin-6-yl)-3-chloro-5-fluoro-2-methyl-1H-indole-7-carboxamide]
- IC50 (BTK [1]): < 10 nM
- kinact/KI (BTK [2]): < 1670 M⁻¹ s⁻¹

SMILES: C=CC(=O)N1CCC=C(c2c(F)cc(C(N)=O)c3[nH]c(C)c(Cl)c23)C1 [Compound 1, 4-(1-acryloyl-1,2,5,6-tetrahydropyridin-3-yl)-3-chloro-5-fluoro-2-methyl-1H-indole-7-carboxamide]
- IC50 (BTK [1]): < 10 nM
- kinact/KI (BTK [2]): > 16700 M⁻¹ s⁻¹

SMILES: C=CC(=O)N1CCC2CCN(c3c(F)cc(C(N)=O)c4[nH]c(C)c(Cl)c34)CC21 (racemic) [Compound 29, 4-(1-acryloyloctahydro-6H-pyrrolo[2,3-c]pyridin-6-yl)-3-chloro-5-fluoro-2-methyl-1H-indole-7-carboxamide]
- IC50 (BTK [1]): 10 to 100 nM
- kinact/KI (BTK [2]): 1670 to 16700 M⁻¹ s⁻¹

SMILES: C=CC(=O)N1CCC[C@@H](c2c(F)c(F)c(C(N)=O)c3[nH]c(C)c(Cl)c23)C1 [Compound 16, (S)-4-(1-acryloylpiperidin-3-yl)-3-chloro-5,6-difluoro-2-methyl-1H-indole-7-carboxamide]
- IC50 (BTK [1]): < 10 nM
- kinact/KI (BTK [2]): > 16700 M⁻¹ s⁻¹

SMILES: C=CC(=O)N1CCC2CCN(c3c(F)cc(C(N)=O)c4[nH]c(C)c(Cl)c34)CC21 (single isomer, unassigned) [Compound 29a, 4-(1-acryloyloctahydro-6H-pyrrolo[2,3-c]pyridin-6-yl)-3-chloro-5-fluoro-2-methyl-1H-indole-7-carboxamide]
- IC50 (BTK [1]): 10 to 100 nM
- kinact/KI (BTK [2]): < 1670 M⁻¹ s⁻¹

SMILES: CC#CC(=O)N[C@H]1C[C@@H](F)CN(c2c(F)cc(C(N)=O)c3[nH]c(C)c(Cl)c23)C1 [Compound 27, 4-((3S,5R)-3-(but-2-ynamido)-5-fluoropiperidin-1-yl)-3-chloro-5-fluoro-2-methyl-1H-indole-7-carboxamide]
- IC50 (BTK [1]): < 10 nM
- kinact/KI (BTK [2]): 1670 to 16700 M⁻¹ s⁻¹

SMILES: C=CC(=O)N1CCC[C@H](c2c(F)c(F)c(C(N)=O)c3[nH]c(C)c(F)c23)C1 [Compound 6a, (R)-4-(1-acryloylpiperidin-3-yl)-3,5,6-trifluoro-2-methyl-1H-indole-7-carboxamide]
- IC50 (BTK [1]): < 10 nM
- kinact/KI (BTK [2]): > 16700 M⁻¹ s⁻¹
